Data published in patent US6558650B1, “Enhancement of cellular gallium uptake” (Oregon Health and Science University, priority 1998, dated 2003).

Columns and labels:
[1] = system: TfR− and TfR+ cells (Chinese Hamster Ovary); test: Cellular uptake of Ga-67, text statements that do not separate TfR− and TfR+ cells; assay type: cell-based
From the text: (§1) A pair of transfected Chinese Hamster Ovary cells lines were used to compare, in a controlled manner, the Tf-dependent and Tf-independent systems for the uptake of Ga-67.
(§2) The two cell lines are identical except that TfR-cells express no TfR, and TfR+ cells over-express the transfected human TfR constitutively. This means that expression of the TfR is independent of cell growth or iron content, which could alter the cells matabolically in many ways that may confound a well-controlled experimental determination of cause and effect. TfR− and TfR+ cells were grown in monolayer and maintained as previously described (37).
The tube was placed on its side on the surface of a cool, daylight color-balanced, fluorescent light box (Just Normlicht).
The temperature at the surface of the light box was 29° C. for the fluorescent light box, and 37° C. for the UV light box. The PDN was added to 10 ml of incubation solution (below) to achieve concentrations ranging from 0.25 μM to 100 μM. Each 10 ml sample of incubation solution contained an equal quantity of ethanol (approximately 100 µl per 10 ml), including the controls.
Following growth of cells in 25 cm^2 flasks to subconfluence, monolayers of cultured cells were first washed, and then pre-incubated for 2 hours at 37° C. with 5 ml serum-free Dulbecco's Modified Essential Medium (DMEM) to deplete the cells of Tf. The pre-incubation medium was then removed and replaced by 1.5 ml of the incubation solution containing 10 uCi/ml carrier-free Ga-67 citrate (Mallinckrodt) in Hank's Balanced Salt solution (HBSS), pre-warmed to 37° C. The concentration of Ga-67 in the incubation solution was approximately 0.25 nM. The HBSS, pH 7.2-7.4, contained 3.7 g/L NaHCO3, 1 mM CaCl2, and 1 mM magnesium salts. Cells were incubated in the PDN- and Ga-67-containing solutions in a CO2 incubator at 37° C. for intervals ranging from 10 seconds to 90 minutes. All experiments were conducted in the dark.
Following incubation of cells with Ga-67, the flasks were immediately placed on ice. The radioactive material was removed by aspiration with a Pasteur pipette attached to water suction. The monolayers were washed 3 times with 5 ml each ice cold HBSS. Cells were washed once with phosphate-buffered saline (PBS), pre-warmed to 37° C. The PBS was removed and the cellular monolayer overlaid with 1.5 ml 0.25% trypsin containing 1 mM EDTA. The trypsin was immediately removed and the cells were incubated briefly (1 minute) at 37° C. The cells in each flask were then dislodged by several gentle mechanical blows to the side of the flask and collected in 200 μl ice cold PBS.
By a modification of a method previously published for radiolabeling of protozoan parasites (38), the cells were then separated from unbound contaminating radioactivity. The 200 μl of cells in PBS were layered gently over 200 μl of an 8.5:1.5 ratio of dibutylpthalate:liquid paraffin oil in a 1.5 ml microfuge tube. With care not to agitate the mixture, the tubes were than centrifuged at 12,000 rpm for 2 minutes in a microfuge. The supernatant and the oil was then aspirated carefully from the top of the tube with a Pasteur pipette attached to water suction. The bottom of the microfuge tube, containing the cell pellet (typical pellet volume˜100 μl), was then clipped with a microfuge tube clipper into a counting vial containing 900 μl of a solution of 200 mM NaOH. 1% SDS. The cell pellet was dissolved in this solution. The content of radioactivity in the samples was determined by a gamma well counting (Packard) in comparison to standard dilutions of the original Ga-67 incubation solution.
Protein assays were performed on the solubilized cell samples by formation of a cuprous bicinchonicic acid complex using a spectrophotometric microtiter plate reader (Dynatech) (39). The method and reagents used are supplied in a kit (Pierce) and were performed according to the manufacturer's directions.

[2] = oral; cited from earlier work
[3] = system: TfR− cells (transfected Chinese Hamster Ovary cells expressing no TfR); settings: 0.5 h, 25 µM
From the text: as §1, §2
(§3) The tube was placed on its side on the surface of a cool, daylight color-balanced, fluorescent light box (Just Normlicht). […]
(§4) The temperature at the surface of the light box was 29° C. for the fluorescent light box, and 37° C. for the UV light box. […] Each 10 ml sample of incubation solution contained an equal quantity of ethanol (approximately 100 µl per 10 ml), including the controls. […]
(§5) By a modification of a method previously published for radiolabeling of protozoan parasites (38), the cells were then separated from unbound contaminating radioactivity. […] The content of radioactivity in the samples was determined by a gamma well counting (Packard) in comparison to standard dilutions of the original Ga-67 incubation solution. […]

[4] = system: TfR+ cells (transfected Chinese Hamster Ovary cells over-expressing human TfR); settings: 0.5 h, 25 µM
From the text: as §1, §2, §3, §4, §5

[5] = system: nucleated rabbit erythrocytes; settings: isolated nitroso-derivative compared with crude photo-degraded nifedipine (44); cited from earlier work

## COC(=O)C1=C(C)NC(C)=C([N+](=O)[O-])C1c1ccccc1C(F)(F)F (centres unmarked) [BAY K 8644]
[1]; light-protected compound
  effect on Ga-67 uptake: None of the light-protected or photo-irradiated compounds had an effect
[1]; photo-irradiated compound
  effect on Ga-67 uptake: None of the light-protected or photo-irradiated compounds had an effect

## COC(=O)C1=C(C)NC(C)=C(C(=O)OC)C1c1ccccc1[N+](=O)[O-] [Nifedipine, dimethyl 1,4-dihydro-2,6-dimethyl-4-(2-nitrophenyl)-3,5-pyridinedicarboxylate]
[2]
  time to peak plasma levels post ingestion: approximately 30 minutes
[3]
  fmoles Ga-67/mg Total Cellular Protein, TfR− cells: .171 fmoles Ga-67/mg Total Cellular
[4]
  fmoles Ga-67/mg Total Cellular Protein, TfR+ cells: 0.296 fmoles Ga-67/mg Total Cellular

## COc1ccc([C@@H]2Sc3ccccc3N(CCN(C)C)C(=O)[C@@H]2OC(C)=O)cc1 [diltiazem]
[1]; light-protected compound
  effect on Ga-67 uptake: None of the light-protected or photo-irradiated compounds had an effect
[1]; photo-irradiated compound
  effect on Ga-67 uptake: None of the light-protected or photo-irradiated compounds had an effect

## CC(=O)c1c(C)nc(C)c(C(C)=O)c1-c1ccccc1N=O [nitroso-derivative, 2,6-dimethyl-3,5-diacetyl-4-(2′-nitrosophenyl)-pyridine]
[5]
  pharmacological action in enhancing the uptake of Fe^2+: same pharmacological action as “crude” photo-degraded nifedipine
[1]; not tested in isolation, inferred from Example 3 data
  gallium uptake (inferred from conditions that correlate with presence of the nitroso-derivative): enhances gallium uptake

## COc1ccc(CCN(C)CCCC(C#N)(c2ccc(OC)c(OC)c2)C(C)C)cc1OC (centres unmarked) [verapamil]
[1]; light-protected compound
  effect on Ga-67 uptake: None of the light-protected or photo-irradiated compounds had an effect
[1]; photo-irradiated compound
  effect on Ga-67 uptake: None of the light-protected or photo-irradiated compounds had an effect
